Experimental data taken from article PMC4178217, “Quinoline 3-sulfonamides inhibit lactate dehydrogenase A and reverse aerobic glycolysis in cancer cells” (Cancer & Metabolism, 2013).
Like-named read-outs stand apart in the source and are kept apart here.

Key:
Serotonin Receptor 5HT3 = molecular target: T1, Serotonin Receptor 5HT3 (Homo sapiens, UniProt P46098); assay: Serotonin Receptor 5HT3 ANT; conditions: antagonist; read-out: pIC50 Serotonin Receptor 5HT3 ANT (converted)
T1 sequence (P46098 24-478): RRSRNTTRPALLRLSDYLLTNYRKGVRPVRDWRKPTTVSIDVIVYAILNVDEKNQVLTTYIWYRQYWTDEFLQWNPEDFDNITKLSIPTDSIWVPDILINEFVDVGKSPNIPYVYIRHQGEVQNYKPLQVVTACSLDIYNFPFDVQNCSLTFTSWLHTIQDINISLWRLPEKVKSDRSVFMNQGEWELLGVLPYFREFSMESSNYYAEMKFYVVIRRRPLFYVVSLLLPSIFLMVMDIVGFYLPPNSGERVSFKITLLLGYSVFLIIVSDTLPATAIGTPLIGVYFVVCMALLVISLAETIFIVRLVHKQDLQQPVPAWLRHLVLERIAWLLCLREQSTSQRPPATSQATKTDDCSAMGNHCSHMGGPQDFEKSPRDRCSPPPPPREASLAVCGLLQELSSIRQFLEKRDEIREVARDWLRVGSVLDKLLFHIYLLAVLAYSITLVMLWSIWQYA
Description: (§1) ANT = antagonist (pIC50), AG = agonist (pEC50). pIC50 and pEC50 are the negative logarithms10 of IC50 and EC50, respectively. Click here for file

Vasopressin Receptor V1a = Vasopressin Receptor V1a (Homo sapiens, UniProt P37288); assay: Vasopressin Receptor V1a ANT; conditions: antagonist; read-out: pIC50 Vasopressin Receptor V1a ANT (converted)
Description: as §1

Snu398 cells = assay: Oxygen consumption and extracellular acidification rates, Snu398 (Seahorse); type: cell-based; conditions: Homo sapiens, SNU-398, 92 min, Snu398, 92 minutes after addition
Procedure: (§2) One hundred twenty thousand Snu398 or HepG2 human hepatocellular carcinoma cells per well were plated in XF24 PS or XF96 PET cell culture microplates (Seahorse Biosciences, North Billerica, MA, USA) and allowed to attach and proliferate for 18 h. Cells were equilibrated with DMEM lacking bicarbonate (Seahorse Biosciences) supplemented with glucose at 37°C for 1 h in an incubator lacking CO2. The rate of change of dissolved O2 (oxygen consumption rate, OCR) and rate of change of pH (extracellular acidification rate, ECAR) in medium immediately surrounding the cells was measured in the XF24 Analyzer (Seahorse Biosciences) per manufacturer’s instructions. Compound doses were injected into the wells at the indicated times. For dose response curves, the OCR and ECAR levels obtained in each well before compound addition were subtracted from the values obtained 92 minutes after compound addition.

Opioid Receptor k [1] = molecular target: T2, Opioid Receptor k (Homo sapiens, UniProt P41145); assay: Opioid Receptor k ANT; conditions: antagonist; read-out: pIC50 Opioid Receptor k ANT (converted)
Description: as §1

Aurora B Kinase = Aurora B Kinase (Homo sapiens, UniProt Q96GD4); assay: Aurora B Kinase ANT; type: biochemical; conditions: antagonist; read-out: pIC50 Aurora B Kinase ANT (converted)
Description: as §1

Opioid Receptor m = Opioid Receptor m (Homo sapiens, UniProt P35372); assay: Opioid Receptor m ANT; conditions: antagonist; read-out: pIC50 Opioid Receptor m ANT (converted)
Description: as §1

HepG2 cells = assay: Oxygen consumption and extracellular acidification rates, HepG2 (Seahorse); type: cell-based, human; conditions: for EC50: Homo sapiens, 92 min, HepG2, 92 minutes after addition
Procedure: as §2
For XF96 experiments breast cancer cells were seeded in DMEM without bicarbonate at 16,000/well in XF96 V3 PET plates (Seahorse Biosciences) coated with CellTak (BD Biosciences, San Jose, CA, USA). […] HepG2 cells were seeded at 16K/well in XF96 V3 PET plates and left overnight for attachment. The medium was exchanged with DMEM without bicarbonate prior to readings on the XF96 Analyzer (Seahorse Biosciences).

Opioid Receptor k [2] = molecular target: T2, Opioid Receptor k; assay: Opioid Receptor k AG; conditions: agonist; read-out: pEC50 Opioid Receptor k AG (converted)
Description: as §1

HCC1937 cells = assay: ECAR after mitochondrial inhibition, breast cancer lines and HCC1937 isogenic shRNA lines; type: cell-based, human
Procedure: A2780 were obtained from the European Collection of Cell Cultures (ECACC, Porton Down, UK), IGROV-1 and U251 were from the National Cancer Institute (NCI, Bethesda, MD, USA), and all other cell lines were from American Type Culture Collection (ATCC, Manassas, VA, USA). The cell lines were authenticated as previously described. All cell lines were maintained in a 37°C 5% CO2-95% humidified air incubator. Breast cancer cell lines were cultured in DMEM (Life Technologies, Carlsbad, CA, USA) supplemented with 5% FBS (Sigma-Aldrich, St. Louis, MO, USA). All other cell lines were maintained in R10 medium (Roswell Park Memorial Institute medium (RPMI)-1640 (Life Technologies) supplemented with 10% FBS). MCF10A cells were supplemented with additional cholera toxin (100 ng/mL), hydrocortisone ([…]), insulin (10 μg/mL), and epidermal growth factor (EGF) (20 ng/mL). […]
For XF96 experiments breast cancer cells were seeded in DMEM without bicarbonate at 16,000/well in XF96 V3 PET plates (Seahorse Biosciences) coated with CellTak (BD Biosciences, San Jose, CA, USA). […] The medium was exchanged with DMEM without bicarbonate prior to readings on the XF96 Analyzer (Seahorse Biosciences).

[3] = molecular target: Norepinephrin Transporter (Homo sapiens, UniProt P23975); assay: Norepinephrin Transporter ANT; conditions: antagonist; read-out: pIC50 Norepinephrin Transporter ANT (converted)
Description: as §1

recombinant human LDHA = recombinant human LDHA (Homo sapiens, UniProt P00338); assay: recombinant human LDHA enzyme assay (lactate to pyruvate, NADH via diaphorase/resazurin)
[4] = molecular target: Glycogen synthase kinase 3b (Homo sapiens, UniProt P49841); assay: Glycogen synthase kinase 3b ANT; type: biochemical; conditions: antagonist; read-out: pIC50 Glycogen synthase kinase 3b ANT (converted)
Description: as §1

T2 sequence (P41145 whole entry): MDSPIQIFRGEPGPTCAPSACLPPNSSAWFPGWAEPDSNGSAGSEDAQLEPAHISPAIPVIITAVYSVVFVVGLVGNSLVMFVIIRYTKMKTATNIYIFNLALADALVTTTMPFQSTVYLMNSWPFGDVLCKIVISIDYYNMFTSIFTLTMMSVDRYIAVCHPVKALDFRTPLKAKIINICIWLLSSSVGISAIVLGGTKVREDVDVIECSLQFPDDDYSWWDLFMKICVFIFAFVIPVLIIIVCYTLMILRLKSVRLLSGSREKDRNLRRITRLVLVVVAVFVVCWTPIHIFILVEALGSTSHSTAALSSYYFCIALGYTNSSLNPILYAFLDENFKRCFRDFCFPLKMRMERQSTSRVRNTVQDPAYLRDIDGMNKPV
Opioid Receptor m, sequence (P35372 whole entry): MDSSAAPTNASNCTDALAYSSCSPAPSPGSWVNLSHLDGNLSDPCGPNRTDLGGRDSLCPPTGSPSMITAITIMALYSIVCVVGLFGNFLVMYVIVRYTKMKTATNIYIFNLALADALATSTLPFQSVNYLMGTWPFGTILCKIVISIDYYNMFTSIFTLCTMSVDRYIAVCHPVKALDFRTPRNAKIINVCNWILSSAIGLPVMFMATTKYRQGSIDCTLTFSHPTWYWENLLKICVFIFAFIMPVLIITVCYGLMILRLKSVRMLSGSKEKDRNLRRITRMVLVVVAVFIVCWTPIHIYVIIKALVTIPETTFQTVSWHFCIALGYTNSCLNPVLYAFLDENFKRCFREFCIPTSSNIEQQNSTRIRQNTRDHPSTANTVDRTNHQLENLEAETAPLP
Vasopressin Receptor V1a, sequence (P37288 whole entry): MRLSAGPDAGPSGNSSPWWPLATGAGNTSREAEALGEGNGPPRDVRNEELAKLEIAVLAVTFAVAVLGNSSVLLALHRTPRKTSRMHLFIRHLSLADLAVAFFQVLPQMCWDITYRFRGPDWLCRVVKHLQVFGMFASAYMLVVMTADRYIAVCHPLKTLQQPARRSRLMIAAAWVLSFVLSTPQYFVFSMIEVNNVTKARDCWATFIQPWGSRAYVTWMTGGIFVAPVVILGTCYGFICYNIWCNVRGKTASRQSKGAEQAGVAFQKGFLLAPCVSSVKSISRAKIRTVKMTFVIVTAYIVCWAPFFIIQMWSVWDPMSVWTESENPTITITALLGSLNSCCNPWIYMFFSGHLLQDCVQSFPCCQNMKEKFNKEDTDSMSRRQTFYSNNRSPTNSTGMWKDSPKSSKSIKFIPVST
Aurora B Kinase, sequence (Q96GD4 whole entry): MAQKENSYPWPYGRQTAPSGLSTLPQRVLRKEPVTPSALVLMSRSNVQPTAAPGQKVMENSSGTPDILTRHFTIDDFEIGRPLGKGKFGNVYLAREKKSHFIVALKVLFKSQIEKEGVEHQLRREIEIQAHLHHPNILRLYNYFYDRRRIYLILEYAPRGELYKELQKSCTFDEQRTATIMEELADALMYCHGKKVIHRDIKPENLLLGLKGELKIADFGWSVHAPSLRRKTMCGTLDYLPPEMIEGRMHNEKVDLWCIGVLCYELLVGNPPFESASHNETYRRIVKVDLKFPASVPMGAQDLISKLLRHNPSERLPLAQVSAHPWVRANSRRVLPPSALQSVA
Norepinephrin Transporter, sequence (P23975 whole entry): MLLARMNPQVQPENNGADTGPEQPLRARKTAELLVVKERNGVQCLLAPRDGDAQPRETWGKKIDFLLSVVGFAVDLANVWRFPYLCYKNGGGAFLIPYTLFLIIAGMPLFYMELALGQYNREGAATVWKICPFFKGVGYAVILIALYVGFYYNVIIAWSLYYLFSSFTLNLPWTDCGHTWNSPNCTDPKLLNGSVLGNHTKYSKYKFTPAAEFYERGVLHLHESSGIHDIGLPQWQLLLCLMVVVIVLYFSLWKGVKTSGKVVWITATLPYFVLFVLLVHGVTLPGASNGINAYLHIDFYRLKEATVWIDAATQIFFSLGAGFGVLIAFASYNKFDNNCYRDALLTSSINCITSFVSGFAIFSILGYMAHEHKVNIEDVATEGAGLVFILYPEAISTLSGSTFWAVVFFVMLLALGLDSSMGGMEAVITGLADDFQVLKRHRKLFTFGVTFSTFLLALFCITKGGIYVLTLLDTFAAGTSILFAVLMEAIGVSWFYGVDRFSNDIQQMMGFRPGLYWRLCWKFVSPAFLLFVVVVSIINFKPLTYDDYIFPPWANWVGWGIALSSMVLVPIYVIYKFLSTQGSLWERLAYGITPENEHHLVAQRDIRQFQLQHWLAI
Glycogen synthase kinase 3b, sequence (P49841 whole entry): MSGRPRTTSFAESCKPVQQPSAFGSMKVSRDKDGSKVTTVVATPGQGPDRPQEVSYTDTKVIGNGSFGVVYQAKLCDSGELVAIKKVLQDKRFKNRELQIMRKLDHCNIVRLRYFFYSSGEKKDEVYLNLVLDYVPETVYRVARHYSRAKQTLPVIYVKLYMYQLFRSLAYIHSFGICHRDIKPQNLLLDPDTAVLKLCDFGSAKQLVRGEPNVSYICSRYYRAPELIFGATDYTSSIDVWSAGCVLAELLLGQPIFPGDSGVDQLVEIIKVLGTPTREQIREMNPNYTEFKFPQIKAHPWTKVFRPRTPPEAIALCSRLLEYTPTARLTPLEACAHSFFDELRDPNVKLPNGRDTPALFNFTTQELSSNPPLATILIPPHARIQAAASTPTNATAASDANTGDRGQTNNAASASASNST

| SMILES | IC50 (Serotonin Receptor 5HT3) [µM] | IC50 (Vasopressin Receptor V1a) [µM] | EC50 (Snu398 cells; read-out: ECAR change EC50) [µM] | EC50 (Snu398 cells; read-out: OCR change EC50) [µM] | IC50 (Opioid Receptor k [1]) [µM] | IC50 (Aurora B Kinase) [µM] | IC50 (Opioid Receptor m) [µM] | oligomycin-dependent OCR (OCROLG) (HepG2 cells; 10 μM) | oligomycin-dependent OCR (OCROLG) (HepG2 cells; 1 to 3 μM, glucose/glutamine medium) | EC50 (HepG2 cells; read-out: ECAR change EC50) [µM] | EC50 (HepG2 cells; read-out: OCR change EC50) [µM] | EC50 (Opioid Receptor k [2]) [µM] | sensitivity (ECAR) with LDHA knockdown (HCC1937 cells; HCC1937 stable LDHA shRNA) | sensitivity (ECAR) with LDHB knockdown (HCC1937 cells; HCC1937 stable LDHB shRNA) | IC50 [3] [µM] | IC50 (recombinant human LDHA) [µM] | IC50 [4] [µM] |
| --- | --- | --- | --- | --- | --- | --- | --- | --- | --- | --- | --- | --- | --- | --- | --- | --- | --- |
| COc1ncc(-c2ccc3c(Nc4cc(Oc5cc(F)cc(F)c5)cc(C(=O)O)c4)c(S(=O)(=O)NC4CC4)cnc3c2)c(OC)n1 [Compound 1] | 50.1 | 50.1 | 0.6 ± 0.2 | 0.5 ± 0.3 | 31.6 | 7.94 | 63.1 | OCROLG was reduced | increased oligomycin-dependent OCR | 0.6 ± 0.1 | 0.9 ± 0.3 | 100 | did not change their sensitivity | more sensitive | 100 |  |  |
| COc1ncc(-c2ccc3c(Nc4cc(C(=O)O)cc(C5CCCC5)c4)c(S(=O)(=O)NC4CC4)cnc3c2)c(OC)n1 [Compound 2] | 12.6 | 20 |  |  | 50.1 | 31.6 | 31.6 |  |  |  |  | 100 |  |  | 100 | 0.016 ± 0.007 | 31.6 |
